In article PMC7651685 (Psychopharmacology, 2020):
Several values for one entry are separate records, joined by “and”; a condition that tells them apart may be missing. Equal entries are not always repeated. Structures can show the parent of a compound that is named as a salt. Where two headings read alike, the source gives them in different places.

Tests used:
DAT = conditions: cited from earlier work
[1] = cited from earlier work
[2] = Tolerability and vital signs after i.v. administration; type: in vivo, rhesus macaques; conditions: for Changes in heart rate, respiratory rate, blood pressure, oxygen saturation and temperature compared with baseline: after i.v. administration, data not shown; for Tolerability of i.v. administration: all doses examined
Description: PET experiments within an animal were spaced at least 2 weeks apart to allow recovery from anesthesia. Animals were fasted for 18–24 h prior to each PET scan experiment. At 2–2.5 h before radiotracer injection, the animal was anesthetized with ketamine (10–15 mg/kg) and glycopyrrolate 0.01 mg/kg i.m., transferred to the PET camera, and intubated with an endotracheal tube for continued anesthesia with 2.0–2.5% isoflurane administered through a rebreathing circuit. An intravenous line was placed and used for injection of radiotracer and administration of the drug. A heated water blanket was used to maintain normal body temperature (37 °C). Vital signs, including heart rate, blood pressure, respiration rate, oxygen saturation, and body temperature, were monitored approximately every 1 to 15 min during the study (data not shown).
Animals tolerated i.v. administration of DAS or MPH at all doses examined.

[3] = Plasma levels of DAS or MPH during the displacement studies; type: in vivo, rhesus macaques (Macaca mulatta); conditions: for Average plasma (infusion period): individual animals A, B
Description: Venous blood samples (1 ml) were collected during the respective bolus and 4-step infusion displacement studies to measure the plasma levels of either DAS or MPH. Blood samples were collected in K3 EDTA vials, processed for plasma, frozen, and stored at − 20 °C until required for HPLC analysis of either DAS or MPH levels.

[4] = Extrapolated permeability and half-time to reach brain equilibrium (equation of Liu et al.)
Text: While lipid solubility and protein binding influences brain penetration, it appears that it is the combination of these two properties that influences the rate of brain penetration of a drug (Liu et al [2005]). […] The half-time to reach brain equilibrium (t1/2 equil) can be estimated by the following equation:
t1/2 equil = Vbln2/(PS.fu,brain)
where Vb is brain volume, PS is the permeability surface area product, P is the permeability rate, S is the surface area and fu is the unbound (free) drug brain concentration.
For comparative purposes between MPH and DAS, we can assume Vb and surface area are the same for both drugs, and the above equation becomes: t1/2equil∝1/P.fu,brain
As mentioned above, plasma protein binding of DAS and MPH are ~ 0.97 (or ~ 97%) and ~ 0.14 (or 14%) respectively, and the free plasma concentration of DAS is 0.03 and for MPH, it is 0.86. Since free drug plasma concentration is equal to free drug brain concentration, we can apply the free drug plasma concentration values of DAS and MPH together with the extrapolated permeability for DAS (12P) and MPH (P) to approximate t1/2 equil for both drugs, i.e.,

D2 receptors = assay: [11C]-Raclopride PET: elevation of synaptic dopamine
Description: Two female rhesus macaques (weight, 8.4 ± 0.2 kg; age, 16.6 ± 0.5) were scanned with [^11C]-Raclopride a total of 8 times, each under 4 scanning conditions per test agent. All scans were performed with [^11C]-Raclopride (tracer mass limited to 0.25 μg/kg) administered as an intravenous (i.v.) bolus + constant infusion (3 min bolus +132 min infusion; Kbol = 60 min; injected dose 5.8 ± 1.0 mCi). Scan data collection began simultaneously with tracer injection using the Siemens FOCUS 220 PET scanner. The scan data was acquired for 135 min and binned into sinograms with the following frame timing: 6 × 30 s; 3 × 1 min; 2 × 2 min; and 25 × 5 min. Prior to each tracer injection, a transmission scan was performed with an external gamma source for attenuation correction.
Experiment day 1 consisted of an initial [^11C]-Raclopride injection with MPH given i.v. at 45 min post-start of tracer administration under tracer steady-state conditions (displacement experiment). A second [^11C]-Raclopride scan was initiated ~ 2.5–3.5 h after the start of scan 1. Experiment day 2 consisted of a MPH pre-block initiated ~ 30 min prior to the first scan. A second scan was again initiated ~ 2.5–3.5 h after the start of scan 1. This same 2-day scanning paradigm was completed for both subjects and repeated using DAS in place of MPH. The test agent doses used were 0.2 mg/kg for DAS and 0.5 mg/kg for MPH. A minimum of 2-week recovery time was allowed between scans with the same subject.
Dynamic scan data were reconstructed with a filtered back-projection algorithm with corrections for attenuation, normalization, scatter, and randoms. ROIs were manually delineated on a single representative anatomical rhesus monkey magnetic resonance image (MRI) registered to a template image. Regions used in this study were caudate and putamen with the cerebellum as the reference region. Registration parameters were obtained to apply the ROIs to individual PET scans, and regional TACs were generated for the ROIs. Apparent binding potential (BPND) curves (target-to-cerebellum ratio - 1) were calculated for putamen and caudate by pooling the data from the 4 injections for each animal/drug combination. The following models were used to describe the apparent BPND curves. Model 1 is based on a gamma function where the occupancy increases, reaches a maximum, and then decreases, and both phases can be measured in the study. Model 2 has only increasing occupancy with time, approaching an asymptotic value. • Model 1: Four-parameter model (gamma function):
The change of BPND over time is modeled using a gamma function. BPNDt=BP01−At−t0^αexp−βt−t0t≥t0
The model can be reformulated as follows: BPNDt=BP01−Occ^maxt−t0/tmax−t0^αexpα1−t−t0/tmax−t0t≥t0α≡−ln2/1−τ+lnττ≡t1/2,R−t0/tmax−t0τ<1ort1/2,F−t0/tmax−t0τ>1 where t0 is the known time of drug administration and BP0 is the apparent BPND at time t0. The maximum occupancy, Occ^max, is obtained at time, tmax. The occupancy rises to 50% of Occ^max at the time, t1/2,R (< tmax), and falls to 50% of Occ^max at time, t1/2,F (> tmax). The 4 parameters of this model are BP0, Occ^max, tmax, and t1/2,R (or t1/2,F). • Model 2: Three-parameter model: BPNDt=BP01−Occ^max1−exp−βt−t0,β=ln2/t1/2,R−t0t≥t0
The parameters of this model are BP0, Occ^max, and t1/2,R.

[5] = system: dopamine efflux in the nucleus accumbens; design: method as in Rowley et al. [2017]; conditions: rat nucleus accumbens microdialysis; ref Rowley et al. [2017]; cited from earlier work
plasma protein = assay: Plasma protein binding; conditions: for Free plasma concentration (fraction): as fraction; for Free plasma concentration (fraction) / Free plasma concentration: from plasma protein binding
[6] = MPH 0.5 mg/kg i.v., model 1 fit
[7] = DAS 0.2 mg/kg i.v., model 2 fit

## COC(=O)C(c1ccccc1)C1CCCCN1 (racemic) [MPH, (±)-Methyl α-Phenyl-α-(2-piperidyl)acetate hydrochloride, reference compound]
DAT; ref Spencer et al. [2006]
  DAT occupancy OC50: 6 ng/mL
[1]; oral, ref Koblan et al. [2016]
  Time to peak (oral absorption): 2 to 3 h
[2]
  Changes in heart rate, respiratory rate, blood pressure, oxygen saturation and temperature compared with baseline: No changes outside physiologically accepted limits
  Tolerability of i.v. administration: tolerated
[3]; MPH 0.1 mg/kg i.v. 3 min bolus, group mean
  Cmax, Mean ± SD: 169.2 ± 28.4 ng/mL
[3]; MPH 0.1 mg/kg i.v. 3 min bolus, individual animals A-D
  Cmax: 137 ng/mL and 177 ng/mL and 117 ng/mL
[3]; MPH 0.5 mg/kg i.v. 3 min bolus, individual animals A-D
  Cmax: 823 ng/mL and 609 ng/mL and 729 ng/mL
[3]; MPH 4.3 mg, bolus plus 4-step infusion over 40 min
  Average plasma (infusion period): 111.9 ng/mL and 91.52 ng/mL
[3]; rhesus monkey, plasma, iv, 0.1 mg/kg, MPH 0.1 mg/kg i.v. 3 min bolus, group mean, read-out: Cmax, Mean ± SD
  Cmax: 169 ± 28.4 ng/mL
[3]; rhesus monkey, plasma, iv, 0.5 mg/kg, MPH 0.5 mg/kg i.v. 3 min bolus, group mean, read-out: Cmax, Mean ± SD
  Cmax: 823 ± 111 ng/mL
[3]; rhesus monkey, plasma, iv, 0.5 mg/kg, MPH 0.5 mg/kg i.v. 3 min bolus, individual animals A-D, read-out: Cmax
  Cmax: 1130 ng/mL
[4]; MPH relative to DAS, from t1/2equil
  Faster than DAS in reaching brain equilibrium: > 2 fold
D2 receptors; [6]
  Maximum reduction in [11C]-raclopride binding (Occmax) in caudate and putamen: 27%
  Time for half-maximal displacement (t1/2,R) of [11C]-raclopride: 0.383 h
D2 receptors; MPH 0.5 mg/kg relative to DAS 0.2 mg/kg
  Time for half-maximal displacement of [11C]-raclopride shorter than for DAS: 4 fold
[5]
  Time of peak of dopamine efflux: 40 min
Plasma protein; MPH relative to DAS
  Free plasma concentration higher than that of DAS: ~30 fold
Plasma protein
  Free plasma concentration (fraction): 0.86
  Free plasma concentration: 86%

## N[C@@H]1CC[C@@H](c2ccc(Cl)c(Cl)c2)c2ccccc21 [DAS, (1R,4S)-4-(3,4-dichlorophenyl)-1,2,3,4-tetra-hydronaphthalen-1-amine]
DAT; human, ref DeLorenzo et al. [2011], Hopkins et al. [2017]
  Reported human DAT RO50: 4.5 to 6 ng/mL
DAT; ref DeLorenzo et al. [2011]
  DAT occupancy OC50: 4 ng/mL
[1]; human, in vivo, po
  t1/2 (elimination): 47 to 77 h
[1]; oral administration in humans
  tmax: 10 to 12 h
[2]
  Changes in heart rate, respiratory rate, blood pressure, oxygen saturation and temperature compared with baseline: No changes outside physiologically accepted limits
  Tolerability of i.v. administration: tolerated
[3]; DAS 0.1 mg/kg i.v. 3 min bolus, individual animals A-D
  Cmax: 87.9 ng/mL and 25.9 ng/mL and 102 ng/mL and 54.6 ng/mL
[3]; DAS 0.2 mg/kg i.v. 3 min bolus, individual animals A-D
  Cmax: 213 ng/mL and 123 ng/mL
[3]; DAS 6.0 mg, bolus plus 4-step infusion over 40 min
  Average plasma (infusion period): 34.86 ng/mL and 32.38 ng/mL
[3]; DAS 6.0 mg, bolus plus 4-step infusion over 40 min, mean of two animals
  Average plasma (infusion period), Mean: 33.62 ng/mL
[3]; rhesus monkey, plasma, iv, 0.1 mg/kg, DAS 0.1 mg/kg i.v. 3 min bolus, group mean, read-out: Cmax, Mean ± SD
  Cmax: 71.9 ± 23.4 ng/mL
[3]; rhesus monkey, plasma, iv, 0.2 mg/kg, DAS 0.2 mg/kg i.v. 3 min bolus, group mean, read-out: Cmax, Mean ± SD
  Cmax: 175 ± 26.9 ng/mL
[3]; rhesus monkey, plasma, iv, 0.2 mg/kg, DAS 0.2 mg/kg i.v. 3 min bolus, individual animals A-D, read-out: Cmax
  Cmax: 190 ng/mL
[4]; 1/(P.fu,brain) with extrapolated permeability (DAS 12P, MPH P) and free plasma fraction
  t1/2equil (half-time to reach brain equilibrium), proportional to: 2.77 P
D2 receptors; [7]
  Maximum reduction in [11C]-raclopride binding (Occmax) in caudate and putamen: 29%
  Time for half-maximal displacement (t1/2,R) of [11C]-raclopride: 1.47 h
D2 receptors; DAS relative to MPH
  Time to 50% maximum displacement of [11C]-Raclopride / elevation of synaptic DA slower than MPH: ~ 4 fold and 4 fold
[5]
  Time to reach maximum effect on dopamine efflux post-dose: up to 2 h
Plasma protein
  Free plasma concentration (fraction): 0.03
  Free plasma concentration: 3%
